Common to all, as to assay: inhibition of tumour cell growth, NCI panel, 48 h
For assay [1], the system named is SNB-19 CNS.
The test system of assay [2] is U251 CNS.
The subject of assay [3] is UACC-62 melanoma.
The subject of assay [4] is HCC-2998 colon.
Assay [5] concerns SK-MEL-2 melanoma.
Assay [6] has as its system HL-60(TB) leukemia.
Assay [7] has as its system MDA-MB-231 breast.
The test system of assay [8] is OVCAR-3 ovarian.
Assay [9] deals with SNB-75 CNS.
In assay [10] the test system is NCI/ADR-RES ovarian.
Assay [11] has as its system SF-295 CNS.
The subject of assay [12] is MDA-N.
For assay [13], the system named is SK-MEL-28 melanoma.
Assay [14] deals with SW-620 colon.
Assay [15] concerns BT-549 breast.
Assay [16] has as its system HT29 colon.
The subject of assay [17] is A549 NSCLC.
Assay [18] deals with RPMI-8226 leukemia.

“And” between values parts separate entries of the source, which are not always exact repeats. Equal values may be shown once.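 Five compound concentrations were applied to cells in 96-well plates for 48 hours; endpoints were derived by simple linear interpolation of the resulting dose-response curve. GI50: concentration for 50% inhibition of growth. TGI: total growth inhibition.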

Regarding `CC(=O)OC1OC(C2c3cccc(O)c3C(=O)c3c(O)cc(CO)cc32)C(O)C(O)C1O` (stereo not given), the TGI in assay [1] is 6.7 µM and 6.51 µM; in assay [2], 22.6 µM; in assay [3] it was 16.6 µM and 17.7 µM; in [4] it was 5.81 µM and 6.58 µM; in assay [5], 6.11 µM and 5.71 µM; in assay [6], 17.3 µM and 12.7 µM. Moreover, the TGI in assay [7] was 7.54 µM and 8.88 µM; in assay [8], 22.4 µM and 12.1 µM; in assay [9], 23.5 µM and 16.3 µM; in assay [10], 44.7 µM and 28.1 µM; in assay [11], 10.5 µM and 22 µM; in assay [12] it was 13.5 µM and 8.28 µM. Moreover, the TGI in [13] was 9.63 µM; in assay [14] it was 10.8 µM and 19.3 µM; in assay [15] it was 22.6 µM and 47.1 µM; in [16] it was more than 100 µM; in [17], 21.2 µM and 29.5 µM. The GI50 in assay [7] was 1.51 µM and 3.4 µM; in assay [8], 9.16 µM and 3.51 µM.
In the case of `CCOC(=O)/C=C(\C(=O)OCC)n1cc(C)c(=O)n(Cc2cn(COCCOC(C)=O)nn2)c1=O`, the TGI in assay [1] stood at 39 µM; in assay [2] it was 37.5 µM; in assay [3], 33.8 µM; in assay [4] it was 43 µM; in assay [5], 34.5 µM; in assay [18] it was 18.9 µM. Moreover, the TGI amounted to 40.7 µM in assay [7]; 27.6 µM in [8]; 36 µM in assay [9]; 67.4 µM in assay [10]; 46.3 µM in [11]; 50.8 µM in assay [12]. Further, the TGI is 48.1 µM in assay [13]; more than 100 µM in assay [14]; 24.3 µM in assay [15]; 20.9 µM in [16]; 56.8 µM in assay [17].
As for `CCC1=NC(N/N=C/c2ccco2)=N/C1=C\c1ccco1`, the TGI in [1], in [2], in [3], in assay [4], in assay [5] and in [18] was more than 100 µM in each case. The TGI in [6], in assay [7], in assay [10], in [11], in assay [12] and in [13] was more than 100 µM in each case. The TGI in assay [14], in [15], in assay [16] and in assay [17] was more than 100 µM throughout.
Turning to `O=C(c1ccccc1)N1CCC(Nc2cccnc2)O1` (stereo not given), the TGI in [1], in assay [2], in assay [3], in [4], in assay [5] and in assay [6] was more than 100 µM each time. Besides, the TGI in assay [7], in [8], in assay [10], in [11], in assay [12] and in [13] was more than 100 µM each time. Moreover, the TGI in assay [14], in [15], in assay [16] and in assay [17] was more than 100 µM each time.
For the compound `C=CCc1cccc(/C(O)=C/C(=O)/C=C/c2ccccc2Cl)c1O`, the TGI in assay [1] is more than 84 µM; in assay [2], more than 63.1 µM; in [3], 43.3 µM; in assay [4], more than 100 µM; in assay [5], 26.2 µM; in assay [18], 36.5 µM. Also, the TGI is more than 93.6 µM in [7]; 76.3 µM in assay [8]; more than 100 µM in assay [9]; 45.9 µM in assay [10]; more than 87.7 µM in assay [11]; more than 100 µM in assay [12]. Further, the TGI was more than 57.5 µM in assay [13]; 90.1 µM in [14]; more than 81.3 µM in assay [15]; 42.5 µM in [16]; more than 100 µM in assay [17].
In the case of `O=c1[nH]nc(Cc2ccc(Cl)cc2)n1CCO`, the TGI in assay [1], in assay [2], in assay [3], in assay [4], in assay [5] and in assay [18] was more than 100 µM throughout. For the same compound, the TGI in [6], in [7], in [8], in [10], in [11] and in assay [12] was more than 100 µM throughout. For the same compound, the TGI in assay [13], in [14], in assay [15], in [16] and in [17] was more than 100 µM in each case.
Consider `N#CC(C#N)[C@@H]1CCC=C(Sc2ccccc2)[C@H]1Sc1ccccc1`, for which the TGI turned out to be 29 µM in assay [1]; 23.6 µM in [2]; 13.9 µM in assay [3]; 6.79 µM in assay [4]; 12.2 µM in assay [5]; 18.7 µM in assay [6]. For the same compound, the TGI in assay [7] was found to be 11.6 µM; in assay [8], 12.8 µM; in assay [9], 17.9 µM; in assay [10], 8.37 µM; in assay [11], 19.9 µM; in [12], 4.41 µM. The TGI worked out at 7.57 µM in [13], 11.9 µM in assay [15], 13.8 µM in assay [16] and 12.7 µM in assay [17].
Consider `C#C[C@@H](OC(=O)c1ccc([N+](=O)[O-])cc1)[C@@H]1C[C@H]2O[C@@H]([C@H](C/C=C/CC)OC(=O)c3ccc([N+](=O)[O-])cc3)C[C@H]2O1`, for which the TGI in [1], in assay [2], in assay [3], in assay [4], in assay [5] and in [18] was more than 100 µM throughout. The TGI in assay [7], in assay [8], in [9], in assay [10], in assay [11] and in assay [12] was more than 100 µM throughout. Besides, the TGI in [13], in [14], in assay [15], in [16] and in [17] was more than 100 µM each time.
Consider `COC(OC)[C@@H]1OC[C@H](n2ccc(=O)[nH]c2=O)[C@H]1O`, for which the TGI in assay [1], in assay [2], in assay [3], in [4], in assay [5] and in assay [18] was more than 100 µM each time. For the same compound, the TGI in assay [7], in [8], in assay [9], in [10], in assay [11] and in assay [12] was more than 100 µM in each case. Moreover, the TGI in assay [13], in [14], in assay [15], in assay [16] and in [17] was more than 100 µM in each case.
In the case of `CCOC(=O)COc1cc(-c2ccccc2)nc2cc(F)ccc12`, the TGI in assay [2], in assay [3], in assay [4], in assay [5], in assay [18] and in assay [7] was more than 100 µM each time. The TGI in [8], in assay [9], in [10], in assay [11], in assay [12] and in assay [13] was more than 100 µM each time. Moreover, the TGI in assay [14], in assay [15], in assay [16] and in assay [17] was more than 100 µM in each case.
Turning to `O=C1/C(=C\c2cccc(Oc3ccccc3)c2)SC(c2ccccc2)N1Cc1ccccc1` (stereo not given), the TGI was 92.8 µM in [1]; 64.4 µM in assay [2]; more than 100 µM in assay [3]; more than 100 µM in assay [4]; 45.7 µM in assay [5]; 57.4 µM in [18]. Moreover, the TGI in assay [6] was 78.3 µM; in [7], more than 100 µM; in [8], 70 µM; in assay [10], 74.4 µM; in assay [11] it was more than 100 µM; in assay [12], 52.3 µM. In addition, the TGI in [13] is more than 100 µM; in assay [14], more than 100 µM; in assay [15], 89 µM; in assay [16] it was 51.2 µM; in [17], more than 100 µM.
Consider `O=C1C2CCCCC2C(=O)N1n1c(Cc2ccccc2)n[nH]c1=O` (stereo not given), for which the TGI in assay [1], in assay [2], in [3], in [4], in [5] and in [18] was more than 100 µM in each case. Also, the TGI in [7], in [8], in assay [9], in [10], in assay [11] and in assay [12] was more than 100 µM throughout. Further, the TGI in assay [14], in [15], in [16] and in assay [17] was more than 100 µM in each case.
Turning to `O=C(/C=C/c1ccc(O)c(O)c1)O[C@H]1CCCC[C@@H]1OC(=O)/C=C/c1ccc(O)c(O)c1`, the TGI was 73.8 µM in assay [1]; more than 100 µM in assay [2]; 27.4 µM in assay [3]; 33.7 µM in assay [4]; 84.3 µM in [5]; more than 100 µM in assay [18]. The TGI in [7] is more than 100 µM; in assay [8], 26.7 µM; in [9], more than 100 µM; in assay [10], 91.2 µM; in assay [11], 33.3 µM; in [12] it was 26.5 µM. For the same compound, the TGI in assay [13] is 44.1 µM; in assay [14], 19.5 µM; in [15], 63.6 µM; in assay [17], more than 100 µM.
Take `COc1ccc(-c2n[nH]c3nc4ccccc4n3c2=O)cc1`: the TGI in assay [1], in assay [2], in [4], in assay [5], in assay [6] and in assay [7] was more than 100 µM in each case. Also, the TGI in [9], in [10], in [12], in assay [13], in [14] and in assay [15] was more than 100 µM each time. Besides, the TGI in assay [16] and in assay [17] was more than 100 µM throughout.
As to `CC(O)/C=C/C1OC(=O)CC1Nc1ccc(C=O)cc1` (stereo not given), the TGI in assay [1] was more than 100 µM; in assay [2], more than 100 µM; in [3], 58.1 µM; in assay [4], more than 100 µM; in assay [5] it was 74.7 µM; in assay [18] it was 90.9 µM. For the same compound, the TGI in assay [7], in [8], in assay [9], in assay [10], in assay [11] and in [12] was more than 100 µM throughout. Further, the TGI in assay [13], in assay [14], in assay [15], in [16] and in assay [17] was more than 100 µM in each case.
Regarding `COc1c(OC)c(OC)c2c(=O)c(OC)c(-c3ccc4c(c3)OCO4)oc2c1OC`, the TGI was more than 100 µM in [1]; more than 100 µM in assay [2]; more than 100 µM in assay [3]; more than 100 µM in assay [4]; more than 100 µM in assay [5]; 33.4 µM in [6]. For the same compound, the TGI in assay [7], in assay [8], in assay [9], in [10], in assay [11] and in assay [12] was more than 100 µM throughout. Moreover, the TGI in [13], in [14], in [15], in assay [16] and in assay [17] was more than 100 µM in each case.

For the origin of these results see PubChem BioAssay (NCI).
